Data as given in patent US20250049708A1, “A TOPICAL GEL FORMULATION FOR SKIN AND MOUTH DISORDERS AND A PROCESS OF PREPARATION THEREOF” (priority 2021, published 2025).

Assays:
Format in all cases: in vivo, male BALB/c mice
oral mucositis = experiment: anti-mucositis activity (mucositis score) in mice with 5-FU + tongue scratching induced oral mucositis; conditions: score 0-5
Experimental: (§1) The in vivo pharmacological assessment of anti-mucositis activity of the topical or oromucosal gel formulation in male BALB/c mice was performed. The study protocol involves six BALB/c mice namely vehicle, 5-Fluorouracil (FU) group, 5 FU-group+Scratching, FU-group+Scratching, FU-group+Scratching+100 ug gel and FU-group+Scratching+30 ug respectively were maintained under specific pathogen-free conditions. The mice were 6-8 weeks of age and weighed 25-30 g. All animal experimental procedures were performed in accordance with the Institutional Animal Ethics Committee (IAEC) guidelines along with approval from IAEC.
The activity of misoprostol of the topical or oromucosal gel formulation was analyzed for anti-mucositis in mice. The anti-mucositis activity is analyzed based on the mucositis score. The scoring parameters for anti-mucositis activity include erythema, vasodilation, erosion, bleeding, fibrosis, and ulcers.
A scoring method is adopted for oral mucositis induced by radiation and chemotherapy. The scoring evaluates the relationship between dosage, delivery method and complications. The Scoring systems are useful in assessing the impact of therapy on patient. […]
FIG. 5 illustrates the effect of topical or oromucosal gel formulation in mice with oral mucositis. The mucositis score was evaluated for 6 groups of mice (G1-G6) over a period of 15 days.

IL-6 = experiment: tongue and serum IL-6 levels in mice with oral mucositis (mouse IL-6 ELISA kit); conditions: 5-FU + scratch mice
Experimental: as §1
(§2) The anti-mucositis study protocol involves mice that are intraperitoneally administered with 5-FU at 100 mg/kg on day 0. The scratching group of mice was anesthetized with isoflurane and an area of 0.5 cm^2 of the tongue was scratched using the tip of an 18-gauge needle at an equal force and depth on days 7 and 8. […]
(§3) The levels of biomarkers such as IL-6 and TNF-α were analyzed in mice upon treatment with topical or oromucosal gel formulation. The concentrations of these biomarkers in serum and tongue were analyzed using standard ELISA kits.
The tongue and serum concentrations of IL-6 were analyzed in mice with oral mucositis upon treatment with topical or oromucosal gel formulation. The concentrations of IL-6 in tongue and serum were analyzed using mouse IL-6 ELISA kit.

TNF-α = experiment: tongue and serum TNF-α levels in mice with oral mucositis (mouse TNF-α ELISA kit); conditions: 5-FU + scratch mice
Experimental: as §1, §2, §3
The tongue and serum concentrations of TNF-α were analyzed in mice with oral mucositis upon treatment with topical or oromucosal gel formulation. The concentrations of TNF-α in tongue and serum were analyzed using mouse TNF-α ELISA kit.

[1] = body weights of mice with oral mucositis over 15 days; conditions: 5-FU + scratch mice; period of 15 days
Experimental: as §1
The anti-mucositis study protocol involves mice that are intraperitoneally administered with 5-FU at 100 mg/kg on day 0. The scratching group of mice was anesthetized with isoflurane and an area of 0.5 cm^2 of the tongue was scratched using the tip of an 18-gauge needle at an equal force and depth on days 7 and 8. The scratching was blinded to the treatment groups. Dexamethasone was administered orally at 1 mg/kg/day from on day 7.
The body weights of mice with oral mucositis upon treatment with topical or oromucosal gel formulation were analyzed for a period of 15 days.

With `C[C@@H]1C[C@H]2[C@@H]3CCC4=CC(=O)C=C[C@]4(C)[C@@]3(F)[C@@H](O)C[C@]2(C)[C@@]1(O)C(=O)CO` [Dexamethasone] the “mucositis score reached in the increase phase” value (oral mucositis; 5-FU 100 mg/kg i.p. day 0 + tongue scratch days 7 and 8, increase till day 8) was 3, the “mucositis score after decrease over the remaining days” value (oral mucositis; 5-FU + scratch, end of 15 day period) was 1 and the “serum IL-6 mean concentration” value (IL-6; serum) was 6.91. For the same compound, the “tongue IL-6 mean concentration” value (IL-6; tongue) was 44.20, the “serum TNF-α mean concentration” value (TNF-α; serum) was 3.32 and the “tongue TNF-α mean concentration” value (TNF-α; tongue) was 20.07. The body weight course [1] was “decrease in weight for 8 days and gradually increases over the remaining 7 days”.
